Experimental data reported in PubChem BioAssay (NCI).
Where “and” joins values, the source holds several entries; their conditions need not be identical. Identical values can stand only once.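 Test compounds were applied to cells in 96-well plates for 48 hours at 5 doses. GI50 is the concentration that inhibits growth by half. TGI denotes the concentration required for complete inhibition of growth.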

Legend:
Test in all cases: NCI tumour cell line growth inhibition, 48 h
NCI-H226 lung = test system: NCI-H226 lung
MDA-MB-435 = test system: MDA-MB-435
HCC-2998 colon = test system: HCC-2998 colon
HOP-62 NSCLC = test system: HOP-62 NSCLC
SNB-75 CNS = test system: SNB-75 CNS
T-47D breast = test system: T-47D breast
786-0 renal = test system: 786-0 renal
UACC-62 melanoma = test system: UACC-62 melanoma

| Compound | GI50 (NCI-H226 lung) | TGI (NCI-H226 lung) [µM] | GI50 (MDA-MB-435) [µM] | TGI (MDA-MB-435) | GI50 (HCC-2998 colon) [µM] | TGI (HCC-2998 colon) [µM] | GI50 (HOP-62 NSCLC) | TGI (HOP-62 NSCLC) | GI50 (SNB-75 CNS) [µM] | TGI (SNB-75 CNS) | GI50 (T-47D breast) [µM] | TGI (T-47D breast) [µM] | GI50 (786-0 renal) | TGI (786-0 renal) [µM] | GI50 (UACC-62 melanoma) [µM] | TGI (UACC-62 melanoma) [µM] |
| --- | --- | --- | --- | --- | --- | --- | --- | --- | --- | --- | --- | --- | --- | --- | --- | --- |
| Cc1cc2c3c([n+](C)c4ccc(F)cc4c3c1)-c1cc(F)ccc1N2C | 3.41 µM | 57.3 | 13.7 | 55 µM | 3.99 | 16.5 | 9.84 µM | > 100 µM | 11 | 41.5 µM | 2.85 | 84 | 6.24 µM | > 100 | – | – |
| Cc1ccc(N=Nc2c(O)ccc3n[nH]nc23)cc1 | 15.3 µM | > 100 | 4.47 | 37.5 µM | 26.2 | > 100 | 28 µM | > 100 µM | 17.4 | > 100 µM | 10.2 | 57.7 | 20.3 µM | > 100 | 4.52 | 47.7 |
| C=C1C(=O)O[C@@H]2CC(CO)=C([C@@H](C)CCCO)[C@@H](OC(=O)/C(C)=C\C)[C@H]12 | – | > 62.8 | – | > 52.4 µM | – | 29.6 | – | > 100 µM | – | > 100 µM | – | 49.7 | – | 52.1 | – | 47.8 |
| O=C(NNc1ccccc1)c1ccc(Cl)c(Cl)c1 | – | > 100 | – | > 100 µM | – | > 40.9 | – | > 100 µM | – | > 67.8 µM | – | > 100 | – | > 100 | – | > 100 |
| [Cl][Hg][c]1ccc2ccccc2c1 | 14.2 µM | 36.3 | 1.68 | 3.44 µM | 2.57 | 7.21 | 3.93 µM | 11.8 µM | 2.24 | 5.79 µM | 2.05 | 4.85 | 1.76 µM | 3.21 | 1.81 | 4.45 |
| CC(C)c1[nH]nc2c(NCc3ccc(-c4ccccn4)cc3)nc(SCCN)nc12 | 0.0404 µM and 0.0279 µM | 0.0985 | 0.00422 | 1.08 µM and 1.07 µM | 0.025 | 1.08 | 0.0247 µM and 0.0206 µM | 0.604 µM and 0.187 µM | 0.00587 | 0.0331 µM and 0.0448 µM | 0.0182 | 0.089 | 0.143 µM and 0.327 µM | – | 0.0191 | 0.0486 |
| O=C1c2ccn(CCCNC(CO)(CO)CO)c2C(=O)c2c1c(O)c1ccccc1c2O | 60.7 µM | > 100 | 34.1 | > 65.4 µM | 2.52 | 8.2 | 2.43 µM | 17.9 µM | > 75.2 | > 100 µM | 16.4 | 50.9 | 7.94 µM | 26.9 | 24.6 | > 61.3 |
| Cc1nn(Cc2ccccc2)cc1C(=O)Nc1sc2c(c1C(N)=O)CCC(=O)C2 | 2.29 µM | 5.7 | 1.98 | 4.45 µM | 2.56 | 7.41 | 2.45 µM | > 100 µM | 1.74 | 6.81 µM | 1.27 | 3.79 | 3.55 µM | 28.6 | 1.59 | 3.4 |
| COc1c(-c2ccc3c(c2)OCO3)oc2cc(O)cc(O)c2c1=O | – | > 100 | – | > 100 µM | – | > 100 | – | 55.5 µM | – | 53.6 µM | – | 64.7 | – | > 100 | – | > 100 |
| OC(CN1CCCC2CCCCC21)c1cc2ccccc2c2ccccc12 (stereo not drawn) | 2.14 µM | 6.32 | 2.02 | 5.06 µM | 1.78 | 3.9 | 1.84 µM | 3.91 µM | 1.9 | 6.83 µM | 2.16 | 5.71 | 1.84 µM | 3.6 | 2.32 | 6.58 |
| Cn1c2c(c3ccccc3c1=O)C(=O)c1ccccc1-2 | – | > 100 | – | > 100 µM | – | – | – | > 100 µM | – | > 100 µM | – | > 100 | – | > 100 | – | > 100 |
| O=C1CC(Cc2n[nH]c3c2CCCC3)CC(=O)N1 | – | > 100 | – | > 100 µM | – | > 100 | – | > 100 µM | – | > 100 µM | – | > 100 | – | > 100 | – | > 100 |
| CC1=CC(C)(C)Nc2ccc(Cc3ccc4c(c3)C(C)=CC(C)(C)N4)cc21 | 20.2 µM | > 100 | 16.5 | > 100 µM | 20.6 | > 100 | 21.3 µM | > 100 µM | 14.8 | > 100 µM | 3.77 | 35.2 | 26 µM | > 100 | 6.95 | 29 |
| CC(=O)c1ccc2c3c1[C@H]1O[C@H]1c1cccc(c1-3)[C@@H]1O[C@H]21 | – | > 88.3 | – | 4.54 µM | – | – | – | 8.83 µM | – | 6.12 µM | – | 6.55 | 1.74 µM | 4 | – | 4.15 |
| CCn1cc(C(=O)N/N=C/c2cccs2)c(=O)c2cc(F)c(N3CCNC(C)C3)c(F)c21 (stereo not drawn) | – | – | 1.78 | 3.24 µM | 1.8 | 3.44 | 1.59 µM | 3.17 µM | 1.47 | 2.83 µM | 1.68 | 3.45 | 1.8 µM | 3.38 | 1.61 | 2.96 |
| O=C1C(Cl)=C(Nc2cc(Cl)ccc2O)C(=O)N1Cc1ccccc1 | 8.66 µM | 21.9 | 19 | 34.9 µM | – | – | 34 µM | > 61 µM | 27.5 | 64.6 µM | 27.6 | > 100 | 18.2 µM | 33 | 16.2 | 30.8 |
| Cc1ccc(-c2c3c(nn2-c2ccc(S(=O)(=O)NC(=O)NC4CCCCC4)cc2)-c2ccccc2C3)cc1 | 20.4 µM | 47.3 | 19 | 41.4 µM | – | – | 18.8 µM | 38.2 µM | 20.4 | 45.5 µM | 25.7 | > 100 | 2.29 µM | 13.8 | 16.9 | 32.2 |
| COc1cc2c3c(n([C@@H]4CCOC4)c(=O)c2cc1OC)-c1cc2c(cc1C3=O)OCO2 | – | – | – | – | – | – | – | – | – | – | – | – | < 0.01 µM | 0.0183 | – | – |
| Cc1c(NC(=O)Nc2c(Cl)cccc2Cl)c(=O)n(-c2ccccc2)n1C | – | > 100 | – | > 100 µM | – | – | – | > 100 µM | – | > 100 µM | – | > 100 | – | > 100 | – | > 100 |
